# Experimental data reported in patent US20100099762A1, “COMBINATION THERAPY” (THE MENTAL HEALTH RESEARCH INSTITUTE OF VICTORIA, priority 2006, published 2010).
# Test system: bipolar disorder
# Assay: Double blind randomised placebo controlled trial of NAC in addition to treatment as usual in bipolar disorder
# Type: in vivo, human
# Text: Consented individuals were assigned using simple randomization (Beller et al., 2002) to treatment with NAC or placebo in addition to treatment as usual, in a double-blind fashion. The nature and dose of the primary therapy was monitored. The person generating the randomisation schedule was not involved in any aspect of participant interview. The investigators, clinicians and statisticians were blind to treatment allocation until the data analysis was completed. The study was registered with the Australian Clinical Trials Registry (Protocol #12605000362695). Participants were recruited through advertisements, their private psychiatrists and database screening. All participants provided written informed consent. The trial setting was in the public and private outpatient psychiatry clinics of the participating centers. The trial was approved by each participating research and ethics committee (Barwon Health, Southwest Area Mental Health Service, Bendigo Health, all in Victoria, Australia), and was conducted according to Good Clinical Practice guidelines.
# All randomized participants received two NAC (500 mg) capsules twice daily (2 g daily), or matching placebo. We selected a daily dose that was at the upper dosing range for published clinical trials of oral NAC of 12 weeks to 12 months duration, and that reported evidence of tolerability and some efficacy (Adair et al., 2001; Van Schooten et al., 2002; Behr et al., 2002; Demedts et al., 2005).
# Individuals needed to meet DSM-IV criteria for bipolar disorder (I or II) with at least 1 documented episode of illness (depressive, manic or mixed) in the previous 6 months, and had to have been on stable therapy for at least 1 month prior to randomisation. Participants were required to have the capacity to consent to the study and comply with study procedures, and utilise effective contraception where indicated.
# Exclusion criteria included individuals with a known or suspected clinically relevant systemic medical disorder, including asthma, bronchospasm, or respiratory insufficiency, recent gastrointestinal ulcers, and individuals who were pregnant or lactating. Individuals taking greater than 500 mg of NAC/day, 200 μg of selenium/day or 500 IU of Vitamin E/day were excluded, as were those with a history of anaphylaxis with NAC or any component of the preparation. Inability to comply with either the requirements of informed consent or the treatment protocol was also an exclusion criterion.
# Withdrawal from the study occurred if participants ceased taking their trial medication for 7 consecutive days, stopped effective contraception or became pregnant. Dose changes to existing medications, or the addition or removal of an agent were accepted, and participants were allowed to continue with the study. Participants were withdrawn from the study if they revoked their consent or developed serious adverse events associated with the study drug, which could occur either at the request of the patient or the discretion of the investigator.
# Participants were assessed at baseline using a structured clinical interview (MINI-plus) and underwent a physical examination. Clinical status was assessed using the MADRS, BDRS, YMRS, CGI-Improvement and Severity scales for bipolar disorder (CGI-I-BP, CGI-S-BP), GAF, SOFAS, SLICE/LIFE, LIFE RIFT, and Q-LES-Q.
# These scales were repeated 2 weekly for the first 4 weeks and 4-weekly thereafter for a total of 24 weeks, or on the day of study termination if the patient withdrew prior to the final scheduled visit. A follow-up visit was conducted 4 weeks (±2 weeks) after the trial completion, either at trial endpoint (week 24), or premature discontinuation, to determine any change in clinical status on treatment discontinuation.
# Time to any intervention for mood symptoms was a further outcome measure. […]
# [1] = NAC 2 g daily plus treatment as usual, week 24
# [2] = post-treatment discontinuation (washout, week 28)
# [3] = week 24, MMRM, between treatment group LS mean difference
smiles,measurement,setting,value
"CC(=O)N[C@@H](CS)C(=O)O [NAC, N-acetyl cysteine]","BDRS: End point to Week 24 (Mean ± SD), NAC",[1],6.7 (6.4)
same,"CGI-I-BP: End point to Week 24 (Mean ± SD), NAC",[1],3.1 (1.6)
same,"CGI-I-D: End point to Week 24 (Mean ± SD), NAC",[1],3.2 (1.6)
same,"CGI-I-M: End point to Week 24 (Mean ± SD), NAC",[1],3.7 (1.1)
same,"CGI-S-BP: End point to Week 24 (Mean ± SD), NAC",[1],2.5 (1.2)
same,"CGI-S-D: End point to Week 24 (Mean ± SD), NAC",[1],2.3 (1.1)
same,"CGI-S-M: End point to Week 24 (Mean ± SD), NAC",[1],1.9 (1.2)
same,"GAF: End point to Week 24 (Mean ± SD), NAC",[1],71.3 (13.9)
same,"LIFE-RIFE: End point to Week 24 (Mean ± SD), NAC",[1],8.9 (3.3)
same,"MADRS: End point to Week 24 (Mean ± SD), NAC",[1],6.6 (7.4)
same,"Q-LES-Q: End point to Week 24 (Mean ± SD), NAC",[1],59.2 (12.7)
same,"SLICE-LIFE: End point to Week 24 (Mean ± SD), NAC",[1],14.9 (5.2)
same,"SOFAS: End point to Week 24 (Mean ± SD), NAC",[1],73.7 (13.4)
same,"YMRS: End point to Week 24 (Mean ± SD), NAC",[1],2.1 (3.3)
same,Adverse event: headaches,"NAC group, placebo 8%",18%
same,Adverse event: heartburn,"NAC group, placebo 8%",16%
same,Adverse event: increased pain in joints,"NAC group, placebo 8%",16%
same,Adverse event: changed energy,"NAC group, placebo 27%",21%
same,Time to a mood episode (Kaplan Meier),"NAC versus placebo, log-rank test",did not reveal any significant differences
same,Effect sizes (Cohen's d) on all rating scales,after 24 weeks of NAC treatment,moderate to large effects
same,Treatment benefit at the post discontinuation visit,"any of the scales, week 28",not evident
same,"Adverse events, NAC group compared to placebo group",checklist of 44 somatic items,No reported event was significantly more common
same,Serious adverse events (SAE) in the group,"of the 7 reported, 4 in placebo group",3
same,"BDRS: Post-treatment to Week 28 (Mean ± SD), NAC",[2],12.1 (10.8)
same,"CGI-I-BP: Post-treatment to Week 28 (Mean ± SD), NAC",[2],3.5 (1.5)
same,"CGI-I-D: Post-treatment to Week 28 (Mean ± SD), NAC",[2],3.7 (1.7)
same,"CGI-I-M: Post-treatment to Week 28 (Mean ± SD), NAC",[2],3.7 (1.0)
same,"CGI-S-BP: Post-treatment to Week 28 (Mean ± SD), NAC",[2],3.1 (1.5)
same,"CGI-S-D: Post-treatment to Week 28 (Mean ± SD), NAC",[2],3.1 (1.7)
same,"CGI-S-M: Post-treatment to Week 28 (Mean ± SD), NAC",[2],1.9 (0.9)
same,"GAF: Post-treatment to Week 28 (Mean ± SD), NAC",[2],66.6 (14.7)
same,"LIFE-RIFE: Post-treatment to Week 28 (Mean ± SD), NAC",[2],10.8 (4.2)
same,"MADRS: Post-treatment to Week 28 (Mean ± SD), NAC",[2],12.2 (11.6)
same,"Q-LES-Q: Post-treatment to Week 28 (Mean ± SD), NAC",[2],52.8 (11.4)
same,"SLICE-LIFE: Post-treatment to Week 28 (Mean ± SD), NAC",[2],17.2 (6.0)
same,"SOFAS: Post-treatment to Week 28 (Mean ± SD), NAC",[2],66.9 (16.2)
same,"YMRS: Post-treatment to Week 28 (Mean ± SD), NAC",[2],2.8 (3.4)
same,"Response, defined as a 50% reduction in total MADRS score, participants","week 20 compared to baseline, placebo 21",46%
same,CGI-I-BP: NAC-Placebo at Endpoint LS Mean,[3],−0.67
same,CGI-I-D: NAC-Placebo at Endpoint LS Mean,[3],−0.62
same,CGI-I-M: NAC-Placebo at Endpoint LS Mean,[3],−0.05
same,CGI-S-D: NAC-Placebo at Endpoint LS Mean,[3],−0.67
same,CGI-S-M: NAC-Placebo at Endpoint LS Mean,[3],−0.03
same,"Response, defined as a 50% reduction in total MADRS score, participants","week 24 compared to baseline, placebo 18",51%
